According to patent US20220281848A1, “PYRAZOLE-SUBSTITUTED PYRROLIDINONES AS HERBICIDES” (FMC Corporation, priority 2019, published 2022):

Key:
Assay type in all cases: in vivo
[1] = tested on: ivy-leaved morning glory (Ipomoea hederacea, IPOHE); assay: Test A post-emergence, ivy-leaved morning glory; conditions: after 13 d
In short: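 Visual damage rating (0 no damage to 100 total damage) was made 13 d after spraying. The spray was 15.625, 62.5 or 250 g/ha in 50:50 acetone/water with 0.5% Tween 20, applied to 8-day-old glasshouse plants kept at 24/16° C, 14 h light and 65% humidity.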

corn (Zea mays, ZEAMX) = assay: Test A pre-emergence, corn; conditions: after 13 d
In short: (§1)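 After sowing in pots and a single day of glasshouse cultivation, the soil was treated with an aqueous spray of the compound (acetone/water 50:50, 0.5% Tween 20) giving 15.625, 62.5 or 250 g/ha. Evaluation after 13 d used a scale where 0 meant no damage and 100 total damage.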

[2] = tested on: giant foxtail (Setaria faberi, SETFA); assay: Test A pre-emergence, giant foxtail; conditions: after 13 d
In short: as §1

wheat = assay: Test D pre-emergence, wheat seed treated with a herbicide safener; conditions: 100=total damage, 0=no damage
Protocol: A formulation containing 50 g/L of the test chemical was prepared by dissolving the active ingredient in a mixture of organic solvents and emulsifier, details of which are provided in the table. This formulation was then mixed with a small, variable amount of acetone to aid dissolution, before addition of a 0.2% v/v aqueous solution of an adjuvant, as the aqueous diluent, to form an aqueous spray solution which contains a predetermined concentration of the active ingredient.
This aqueous spray solution was then sprayed onto plants including maize and wheat that had been seed treated with a herbicide safener, after one day's cultivation (for pre-emergence) or after about 12 days' cultivation (for post-emergence). The plants were grown from seeds sown in standard soil, placed in a glasshouse under controlled conditions (at 24/18° C. or 20/16° C., day/night; 16 h light; 65% humidity). After spray application the plants were then grown in a glasshouse under the same conditions and watered twice daily. After 15 d for post-emergence and 20 DAA for pre-emergence the test was evaluated (100=total damage to plant; 0=no damage to plant).

[3] = tested on: redroot pigweed (Amaranthus retroflexus, AMARE); assay: Test A pre-emergence, redroot pigweed; conditions: after 13 d
In short: as §1

[4] = tested on: ivy-leaved morning glory (Ipomoea hederacea, IPOHE); assay: Test A pre-emergence, ivy-leaved morning glory; conditions: after 13 d
In short: as §1

SMILES | damage to plant (100=total damage; 0=no damage) IPOHE ([1]; Post-Emergence at 15.625 g/ha) | damage to plant (100=total damage; 0=no damage) IPOHE ([1]; Post-Emergence at 62.5 g/ha) | damage to plant (100=total damage; 0=no damage) IPOHE ([1]; Post-Emergence at 250 g/ha) | damage to plant (100=total damage; 0=no damage) ZEAMX (corn (Zea mays, ZEAMX); Pre-Emergence at 15.625 g/ha) | damage to plant (100=total damage; 0=no damage) ZEAMX (corn (Zea mays, ZEAMX); Pre-Emergence at 62.5 g/ha) | damage to plant (100=total damage; 0=no damage) ZEAMX (corn (Zea mays, ZEAMX); Pre-Emergence at 250 g/ha) | damage to plant (100=total damage; 0=no damage) SETFA ([2]; Pre-Emergence at 15.625 g/ha) | damage to plant (100=total damage; 0=no damage) SETFA ([2]; Pre-Emergence at 62.5 g/ha) | damage to plant (100=total damage; 0=no damage) SETFA ([2]; Pre-Emergence at 250 g/ha) | damage to plant, TRZAW (wheat; rate 15, 20 DAA) | damage to plant, TRZAW (wheat; rate 30, 20 DAA) | damage to plant, TRZAW (wheat; rate 60, 20 DAA) | damage to plant, TRZAW (wheat; rate 130, 20 DAA) | damage to plant, TRZAW (wheat; rate 250, 20 DAA) | damage to plant, TRZAW (wheat; rate 500, 20 DAA) | damage to plant (100=total damage; 0=no damage) AMARE ([3]; Pre-Emergence at 15.625 g/ha) | damage to plant (100=total damage; 0=no damage) AMARE ([3]; Pre-Emergence at 62.5 g/ha) | damage to plant (100=total damage; 0=no damage) AMARE ([3]; Pre-Emergence at 250 g/ha) | damage to plant (100=total damage; 0=no damage) IPOHE ([4]; Pre-Emergence at 62.5 g/ha) | damage to plant (100=total damage; 0=no damage) IPOHE ([4]; Pre-Emergence at 250 g/ha) | further results
CCn1nc([C@H]2CN(C)C(=O)[C@@H]2C(=O)Nc2cccc(F)c2F)c2c(F)cccc21 [Compound 7] | 20 | 20 | 0 | 20 | 30 | 90 | 70 | 80 | 90 | 0 | 0 | 0 | 0 | 0 | 0 | 0 | 0 | 0 | 20 | 80 | damage to plant (100=total damage; 0=no damage) IPOHE ([4]; Pre-Emergence at 15.625 g/ha): 20
CN1CC(c2cnn(C)c2C(F)(F)F)C(C(=O)Nc2cccc(F)c2F)C1=O (racemic) [Compound 25] | 10 | 40 | 40 | 0 | 0 | 20 | 80 | 90 | 100 | 0 | 0 | 0 | 0 | 0 | 0 | 0 | 0 | 0 | 0 | 0 | damage to plant (100=total damage; 0=no damage) IPOHE ([4]; Pre-Emergence at 15.625 g/ha): 0
CN1CC(c2cc(C(F)(F)F)n(C)n2)C(C(=O)Nc2ccc(F)c(F)c2F)C1=O (racemic) [Compound 17] | 0 | 0 | 0 | 60 | 70 | 90 | 90 | 90 | 90 | 0 | 0 | 0 | 50 | 60 | 90 | 0 | 10 | 20 | 0 | 20 | damage to plant (100=total damage; 0=no damage) IPOHE ([4]; Pre-Emergence at 15.625 g/ha): 0
CN1CC(c2cc(C(F)(F)F)n(C)n2)C(C(=O)Nc2cccc(F)c2F)C1=O (racemic) [Compound 3] | 0 | 0 | 0 | 0 | 60 | 90 | 90 | 90 | 90 | 0 | 0 | 0 | 0 | 0 | 60 | 20 | 20 | 70 | 0 | 30 | damage to plant (100=total damage; 0=no damage) IPOHE ([4]; Pre-Emergence at 15.625 g/ha): 0
CCn1nc([C@H]2CN(C)C(=O)[C@@H]2C(=O)Nc2cccc(F)c2F)c2ccc(F)cc21 [Compound 4] | 0 | 0 | 20 | 0 | 40 | 80 | 80 | 90 | 90 | 0 | 0 | 0 | 0 | 0 | 0 | 0 | 20 | 40 | 10 | 70 | damage to plant (100=total damage; 0=no damage) IPOHE ([4]; Pre-Emergence at 15.625 g/ha): 0
CN1CC(c2cc(C(F)(F)F)n(C)n2)C(C(=O)Nc2ccc(F)cc2C(C)(F)F)C1=O (racemic) [Compound 26] | – | 20 | 50 | – | 70 | 90 | – | 90 | 90 | 0 | 0 | 0 | 10 | 70 | 30 | – | 0 | 0 | 30 | 70 | –
CCn1nc([C@@H]2CN(C)C(=O)[C@H]2C(=O)Nc2cccc(F)c2F)c2cccc(F)c21 [Compound 14] | 10 | 30 | 50 | 20 | 10 | 70 | 60 | 90 | 90 | 0 | 0 | 0 | 0 | 60 | 90 | 0 | 0 | 0 | 40 | 70 | damage to plant (100=total damage; 0=no damage) IPOHE ([4]; Pre-Emergence at 15.625 g/ha): 30
